Results published in the supplement of paper PMC10307832.

Tests used:
Test in all cases: relative viability (nuclei count vs DMSO), 5 days (fraction); higher = more cells survive
[1] = system: NCI-H358
Summary of the method: (§1)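 Relative viability divides the nuclei count in treated wells by that in vehicle wells. Lung cancer cell lines were seeded in 1536-well plates, dosed by pin tool the next day, and fixed and stained after 5 days in one step with final 0.05% Triton X-100, 1% formaldehyde and 1 ug/ml Hoechst. Dosing was a single drug or a fixed anchor-drug dose plus five library-drug doses (not always all listed) in √10 steps, and values are medians of duplicate plates imaged at 4×.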

[2] = system: EPLC-272H
Summary of the method: as §1

[3] = system: A-427
Summary of the method: as §1

[4] = system: NCI-H1915
Summary of the method: as §1

[5] = system: EKVX
Summary of the method: as §1

[6] = system: NCI-H2023
Summary of the method: as §1

[7] = system: NCI-H1734
Summary of the method: as §1

[8] = system: COR-L23
Summary of the method: as §1

[9] = system: NCI-H1395
Summary of the method: as §1

[10] = system: NCI-H3122
Summary of the method: as §1

[11] = system: NCI-H650
Summary of the method: as §1

[12] = system: NCI-H2087
Summary of the method: as §1

[13] = system: HCC-78
Summary of the method: as §1

[14] = system: HOP-62
Summary of the method: as §1

[15] = system: ChaGo-K-1
Summary of the method: as §1

[16] = system: NCI-H661
Summary of the method: as §1

[17] = system: HCC-44
Summary of the method: as §1

[18] = system: SK-MES-1
Summary of the method: as §1

[19] = system: NCI-H1650
Summary of the method: as §1

[20] = system: NCI-H838
Summary of the method: as §1

[21] = system: LOU-NH91
Summary of the method: as §1

[22] = system: NCI-H596
Summary of the method: as §1

[23] = system: HCC-366
Summary of the method: as §1

O=C(O)CCCCC(CCSCc1ccccc1)SCc1ccccc1 (centres undefined) [CPI-613] + CS(=O)(=O)N1CCN(Cc2cc3nc(-c4cccc5[nH]ncc45)nc(N4CCOCC4)c3s2)CC1 [Pictilisib] (partner 1 µM)
relative viability ([1]; first compound 5 µM): 0.355 | relative viability ([1]; first compound 15.81 µM): 0.292 | relative viability ([1]; first compound 50 µM): 0.278 | relative viability ([1]; first compound 158.11 µM): 0.255 | relative viability ([1]; first compound 500 µM): 0.0276 | relative viability ([2]; first compound 5 µM): 0.251 | relative viability ([2]; first compound 15.81 µM): 0.28 | relative viability ([2]; first compound 50 µM): 0.369 | relative viability ([2]; first compound 158.11 µM): 0.246 | relative viability ([2]; first compound 500 µM): 0.339 | relative viability ([3]; first compound 5 µM): 0.742 | relative viability ([3]; first compound 15.81 µM): 0.696 | relative viability ([3]; first compound 50 µM): 0.66 | relative viability ([3]; first compound 158.11 µM): 0.613 | relative viability ([3]; first compound 500 µM): 0.737 | relative viability ([4]; first compound 5 µM): 0.988 | relative viability ([4]; first compound 15.81 µM): 0.719 | relative viability ([4]; first compound 50 µM): 0.908 | relative viability ([4]; first compound 158.11 µM): 0.927 | relative viability ([4]; first compound 500 µM): 0.503 | relative viability ([5]; first compound 5 µM): 0.43 | relative viability ([5]; first compound 15.81 µM): 0.451 | relative viability ([5]; first compound 50 µM): 0.509 | relative viability ([5]; first compound 158.11 µM): 0.415 | relative viability ([5]; first compound 500 µM): 0.406 | relative viability ([6]; first compound 5 µM): 0.233 | relative viability ([6]; first compound 15.81 µM): 0.218 | relative viability ([6]; first compound 50 µM): 0.231 | relative viability ([6]; first compound 158.11 µM): 0.0548 | relative viability ([6]; first compound 500 µM): 0.0183 | relative viability ([7]; first compound 5 µM): 0.466 | relative viability ([7]; first compound 15.81 µM): 0.383 | relative viability ([7]; first compound 50 µM): 0.434 | relative viability ([7]; first compound 158.11 µM): 0.274 | relative viability ([7]; first compound 500 µM): 0.113 | relative viability ([8]; first compound 5 µM): 0.639 | relative viability ([8]; first compound 15.81 µM): 0.689 | relative viability ([8]; first compound 50 µM): 0.621 | relative viability ([8]; first compound 158.11 µM): 0.393 | relative viability ([8]; first compound 500 µM): 0.007 | relative viability ([9]; first compound 5 µM): 0.623 | relative viability ([9]; first compound 15.81 µM): 0.782 | relative viability ([9]; first compound 50 µM): 0.619 | relative viability ([9]; first compound 158.11 µM): 0.645 | relative viability ([9]; first compound 500 µM): 0.51 | relative viability ([10]; first compound 5 µM): 0.587 | relative viability ([10]; first compound 15.81 µM): 0.614 | relative viability ([10]; first compound 50 µM): 0.591 | relative viability ([10]; first compound 158.11 µM): 0.605 | relative viability ([10]; first compound 500 µM): 0.031 | relative viability ([11]; first compound 5 µM): 0.805 | relative viability ([11]; first compound 15.81 µM): 0.861 | relative viability ([11]; first compound 50 µM): 0.855 | relative viability ([11]; first compound 158.11 µM): 0.742 | relative viability ([11]; first compound 500 µM): 0.736 | relative viability ([12]; first compound 5 µM): 0.87 | relative viability ([12]; first compound 15.81 µM): 0.702 | relative viability ([12]; first compound 50 µM): 0.733 | relative viability ([12]; first compound 158.11 µM): 0.587 | relative viability ([12]; first compound 500 µM): 0.0127 | relative viability ([13]; first compound 5 µM): 0.203 | relative viability ([13]; first compound 15.81 µM): 0.167 | relative viability ([13]; first compound 158.11 µM): 0.156 | relative viability ([13]; first compound 500 µM): 0.206 | relative viability ([14]; first compound 5 µM): 0.526 | relative viability ([14]; first compound 15.81 µM): 0.7 | relative viability ([14]; first compound 50 µM): 0.704 | relative viability ([14]; first compound 158.11 µM): 0.496 | relative viability ([14]; first compound 500 µM): 0.0332 | relative viability ([15]; first compound 5 µM): 0.519 | relative viability ([15]; first compound 15.81 µM): 0.663 | relative viability ([15]; first compound 50 µM): 0.707 | relative viability ([15]; first compound 158.11 µM): 0.612 | relative viability ([15]; first compound 500 µM): 0.33 | relative viability ([16]; first compound 5 µM): 0.36 | relative viability ([16]; first compound 15.81 µM): 0.428 | relative viability ([16]; first compound 50 µM): 0.442 | relative viability ([16]; first compound 158.11 µM): 0.355 | relative viability ([16]; first compound 500 µM): 0.367 | relative viability ([17]; first compound 5 µM): 0.546 | relative viability ([17]; first compound 15.81 µM): 0.611 | relative viability ([17]; first compound 50 µM): 0.589 | relative viability ([17]; first compound 158.11 µM): 0.469 | relative viability ([17]; first compound 500 µM): 0.0534 | relative viability ([18]; first compound 5 µM): 0.368 | relative viability ([18]; first compound 15.81 µM): 0.314 | relative viability ([18]; first compound 50 µM): 0.363 | relative viability ([18]; first compound 158.11 µM): 0.399 | relative viability ([18]; first compound 500 µM): 0.371 | relative viability ([19]; first compound 5 µM): 0.597 | relative viability ([19]; first compound 15.81 µM): 0.477 | relative viability ([19]; first compound 50 µM): 0.638 | relative viability ([19]; first compound 158.11 µM): 0.109 | relative viability ([19]; first compound 500 µM): 0.0271 | relative viability ([20]; first compound 5 µM): 0.483 | relative viability ([20]; first compound 15.81 µM): 0.289 | relative viability ([20]; first compound 50 µM): 0.392 | relative viability ([20]; first compound 158.11 µM): 0.299 | relative viability ([20]; first compound 500 µM): 0.0565 | relative viability ([21]; first compound 5 µM): 0.499 | relative viability ([21]; first compound 15.81 µM): 0.519 | relative viability ([21]; first compound 50 µM): 0.541 | relative viability ([21]; first compound 158.11 µM): 0.532 | relative viability ([21]; first compound 500 µM): 0.511 | relative viability ([22]; first compound 5 µM): 0.423 | relative viability ([22]; first compound 15.81 µM): 0.442 | relative viability ([22]; first compound 50 µM): 0.435 | relative viability ([22]; first compound 158.11 µM): 0.339 | relative viability ([22]; first compound 500 µM): 0.0372 | relative viability ([23]; first compound 5 µM): 0.149 | relative viability ([23]; first compound 15.81 µM): 0.144 | relative viability ([23]; first compound 50 µM): 0.154 | relative viability ([23]; first compound 158.11 µM): 0.12 | relative viability ([23]; first compound 500 µM): 0.157
